Results as given in the supplement of paper PMC10627819.

Experiments:
B. subtilis 168 [1] = experiment: fitness (endpoint OD595 vs no drug) (fraction); higher = more growth
Method in brief: (§1)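 Background-subtracted growth curves were the basis for fitness, taken as the optical density at entry into stationary phase over the robust mean of no-drug control wells. A cap of 1 was applied. The curves came from OD595 readings every 30 min for 14 h at 37 °C, in 384-well plates seeded at OD595 0.01 with 30 µl, or 55 µl for S. pneumoniae.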

S. pneumoniae D39V [2] = experiment: as above
Method in brief: as §1

S. aureus DSM 20231 [3] = experiment: as above
Method in brief: as §1

S. aureus Newman [4] = experiment: as above
Method in brief: as §1

B. subtilis 168 [5] = experiment: Bliss interaction score (quartile over a dose matrix) (fitness difference); higher = more antagonism (negative = synergy)
Method in brief: (§2)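 Fitness was defined as normalised growth: OD595 at the start of stationary phase divided by the plate's robust no-drug mean and capped at 1. Single-drug fitness was inferred from combination measurements. The Bliss score is observed fitness minus the product of the single-drug values, summarised by quartiles across technical, biological and donor/recipient replicates.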

S. pneumoniae D39V [6] = experiment: as above
Method in brief: as §2

S. aureus DSM 20231 [7] = experiment: as above
Method in brief: as §2

S. aureus Newman [8] = experiment: as above
Method in brief: as §2
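Wherever Bliss interaction score (quartile over a dose matrix) is given: first quartile when negative (synergy) and third quartile when positive (antagonism).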

COc1cccc2c1C(=O)c1c(O)c3c(c(O)c1C2=O)C[C@@](O)(C(=O)CO)C[C@@H]3O[C@H]1C[C@H](N)[C@H](O)[C@H](C)O1 [Doxorubicin] + Cc1onc(-c2ccccc2)c1C(=O)N[C@@H]1C(=O)N2[C@@H]1SC(C)(C)[C@@H]2C(=O)O [Oxacillin]
fitness
Conditions | first compound 0.25 µg/mL | first compound 0.5 µg/mL | first compound 0.625 µg/mL | first compound 1 µg/mL | first compound 1.25 µg/mL | first compound 2.5 µg/mL
B. subtilis 168 [1], partner 0.002 µg/mL | – | – | 0.995 | – | 0.895 | 0.749
B. subtilis 168 [1], partner 0.004 µg/mL | – | – | 0.932 | – | 0.89 | 0.675
B. subtilis 168 [1], partner 0.008 µg/mL | – | – | 0.881 | – | 0.871 | 0.512
S. aureus DSM 20231 [3], partner 0.0156 µg/mL | – | – | 0.738 | – | 0.756 | 0.599
S. aureus DSM 20231 [3], partner 0.0312 µg/mL | – | – | 0.604 | – | 0.585 | 0.532
S. aureus DSM 20231 [3], partner 0.0625 µg/mL | – | – | 0.479 | – | 0.481 | 0.466
S. aureus Newman [4], partner 0.0156 µg/mL | – | – | 0.705 | – | 0.671 | 0.671
S. aureus Newman [4], partner 0.0312 µg/mL | – | – | 0.637 | – | 0.633 | 0.645
S. aureus Newman [4], partner 0.0625 µg/mL | – | – | 0.582 | – | 0.583 | 0.569
S. pneumoniae D39V [2], partner 0.005 µg/mL | ≥ 1 | ≥ 1 | – | 0.997 | – | –
S. pneumoniae D39V [2], partner 0.01 µg/mL | 0.941 | 0.973 | – | 0.924 | – | –
S. pneumoniae D39V [2], partner 0.02 µg/mL | 0.889 | 0.897 | – | 0.891 | – | –
S. pneumoniae D39V [2], partner 0.04 µg/mL | 0.252 | 0.337 | – | 0.323 | – | –

fitness, B. subtilis 168 [1], one replicate
Conditions | partner 0.0078 µg/mL | partner 0.0155 µg/mL | partner 0.031 µg/mL | partner 0.075 µg/mL | partner 0.15 µg/mL | partner 0.3 µg/mL
first compound 0.625 µg/mL | ≥ 1 | ≥ 1 | 0.943 | 0.468 | 0.0267 | 0.0431
first compound 1.25 µg/mL | 0.965 | 0.934 | 0.857 | 0.496 | 0.0281 | 0.0304
first compound 2.5 µg/mL | 0.652 | 0.666 | 0.477 | 0.0449 | 0.0184 | 0.0211

Conditions | Bliss interaction score
B. subtilis 168 [5] | 0.0758
S. aureus DSM 20231 [7] | -0.0629
S. aureus Newman [8] | 0.0538
S. pneumoniae D39V [6] | 0.0665

COc1cccc2c1C(=O)c1c(O)c3c(c(O)c1C2=O)C[C@@](O)(C(=O)CO)C[C@@H]3O[C@H]1C[C@H](N)[C@H](O)[C@H](C)O1 [Doxorubicin] + O=C(O[C@@H]1Cc2c(O)cc(O)cc2O[C@@H]1c1cc(O)c(O)c(O)c1)c1cc(O)c(O)c(O)c1 [EGCG]
fitness
Conditions | partner 6.25 µg/mL | partner 12.5 µg/mL | partner 25 µg/mL | partner 50 µg/mL
B. subtilis 168 [1], first compound 0.625 µg/mL | 0.934 | 0.617 | – | –
B. subtilis 168 [1], first compound 1.25 µg/mL | 0.932 | 0.554 | – | –
B. subtilis 168 [1], first compound 2.5 µg/mL | 0.737 | 0.429 | – | –
S. aureus DSM 20231 [3], first compound 0.625 µg/mL | – | 0.688 | 0.707 | –
S. aureus DSM 20231 [3], first compound 1.25 µg/mL | – | 0.708 | 0.676 | –
S. aureus DSM 20231 [3], first compound 2.5 µg/mL | – | 0.728 | 0.715 | –
S. aureus Newman [4], first compound 0.625 µg/mL | – | 0.731 | 0.712 | –
S. aureus Newman [4], first compound 1.25 µg/mL | – | 0.705 | 0.703 | 0.594
S. aureus Newman [4], first compound 2.5 µg/mL | – | 0.678 | 0.66 | 0.617
S. pneumoniae D39V [2], first compound 0.25 µg/mL | – | 0.916 | 0.987 | 0.924
S. pneumoniae D39V [2], first compound 0.5 µg/mL | – | 0.904 | 0.845 | ≥ 1
S. pneumoniae D39V [2], first compound 1 µg/mL | – | – | 0.804 | 0.903

Conditions | Bliss interaction score
B. subtilis 168 [5] | -0.0819
S. aureus DSM 20231 [7] | -0.107
S. aureus Newman [8] | 0.0447
S. pneumoniae D39V [6] | 0.0782
